Results published in ChEMBL document CHEMBL1151785, “Oleanolic acid and its derivatives: new inhibitor of protein tyrosine phosphatase 1B with cellular activities” (Bioorg Med Chem, 2008).

Legend:
[1] = target: T1, Tyrosine-protein phosphatase non-receptor type 1 (Homo sapiens, UniProt P18031); experiment: Inhibition of PTP1B by pNPP assay
T1 sequence (P18031 whole entry): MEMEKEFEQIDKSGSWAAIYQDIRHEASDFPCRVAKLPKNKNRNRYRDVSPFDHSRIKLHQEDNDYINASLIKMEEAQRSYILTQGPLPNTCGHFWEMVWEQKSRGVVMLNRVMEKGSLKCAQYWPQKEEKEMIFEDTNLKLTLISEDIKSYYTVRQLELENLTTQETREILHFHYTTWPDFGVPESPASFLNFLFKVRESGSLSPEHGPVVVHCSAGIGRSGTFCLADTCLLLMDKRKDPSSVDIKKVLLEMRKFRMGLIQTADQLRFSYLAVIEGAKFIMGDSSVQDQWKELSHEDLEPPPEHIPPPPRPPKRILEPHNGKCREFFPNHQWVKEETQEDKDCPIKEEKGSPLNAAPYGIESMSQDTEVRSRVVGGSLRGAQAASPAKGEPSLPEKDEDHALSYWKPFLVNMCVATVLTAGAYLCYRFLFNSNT

[2] = target: T2, Tyrosine-protein phosphatase non-receptor type 2 (Homo sapiens, UniProt P17706); experiment: Inhibition of TCPTP by pNPP assay
T2 sequence (P17706 whole entry): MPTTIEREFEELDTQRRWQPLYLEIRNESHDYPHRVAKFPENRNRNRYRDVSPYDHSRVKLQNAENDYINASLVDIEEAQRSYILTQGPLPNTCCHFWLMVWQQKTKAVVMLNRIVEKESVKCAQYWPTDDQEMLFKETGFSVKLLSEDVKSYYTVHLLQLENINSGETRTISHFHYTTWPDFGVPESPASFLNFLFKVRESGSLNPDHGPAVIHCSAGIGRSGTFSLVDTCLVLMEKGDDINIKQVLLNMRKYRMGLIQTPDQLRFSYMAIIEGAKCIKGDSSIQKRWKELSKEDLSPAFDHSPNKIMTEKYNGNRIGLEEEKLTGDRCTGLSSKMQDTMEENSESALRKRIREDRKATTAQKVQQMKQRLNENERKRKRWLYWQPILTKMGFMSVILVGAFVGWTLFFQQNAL

CC1(C)CC[C@]2(C(=O)OCc3ccccc3)CC[C@]3(C)C(=CC[C@@H]4[C@@]5(C)CC[C@H](O)C(C)(C)[C@@H]5CC[C@]43C)[C@@H]2C1
IC50 [1]: 8610 nM

CC1(C)CC[C@]2(CCCCC(=O)NC(Cc3ccc(F)cc3)C(=O)O)CC[C@]3(C)C(=CC[C@@H]4[C@@]5(C)CC[C@H](O)C(C)(C)[C@@H]5CC[C@]43C)[C@@H]2C1 (stereo partly specified)
IC50 [1]: 570 nM
IC50 [2]: 650 nM

CC1(C)CC[C@]2(C(=O)O)CC[C@]3(C)C(=CC[C@@H]4[C@@]5(C)CCCC(C)(C)[C@@H]5CC[C@]43C)[C@@H]2C1
IC50 [1]: 2610 nM
IC50 [2]: 3000 nM

CC1(C)CC[C@]2(CCCCCCC(=O)O)CC[C@]3(C)C(=CC[C@@H]4[C@@]5(C)CC[C@H](O)C(C)(C)[C@@H]5CC[C@]43C)[C@@H]2C1
IC50 [1]: 880 nM
IC50 [2]: 850 nM

C[C@H]1[C@H](C)CC[C@]2(C)CC[C@]3(C)C(=CC[C@@H]4[C@@]5(C)CC[C@@H](O)[C@](C)(C(=O)O)[C@@H]5CC[C@]43C)[C@H]12 [BOSWELLIC ACID]
IC50 [1]: > 20000 nM
IC50 [2]: > 20000 nM

Cc1ccccc1CC(NC(=O)CCCC[C@]12CCC(C)(C)C[C@H]1C1=CC[C@@H]3[C@@]4(C)CC[C@H](O)C(C)(C)[C@@H]4CC[C@@]3(C)[C@]1(C)CC2)C(=O)O (stereo partly specified)
IC50 [1]: 550 nM
IC50 [2]: 500 nM

COc1ccc(CC(NC(=O)CCCC[C@]23CCC(C)(C)C[C@H]2C2=CC[C@@H]4[C@@]5(C)CC[C@H](O)C(C)(C)[C@@H]5CC[C@@]4(C)[C@]2(C)CC3)C(=O)O)cc1 (stereo partly specified)
IC50 [1]: 600 nM
IC50 [2]: 550 nM

CC1(C)CC[C@]2(C(=O)O)CC[C@]3(C)C(=CC[C@@H]4[C@@]5(C)CCC(=O)C(C)(C)[C@@H]5CC[C@]43C)[C@@H]2C1 [OLEANONIC ACID]
IC50 [1]: 5320 nM
IC50 [2]: 5630 nM

COc1cccc(CC(NC(=O)CCCC[C@]23CCC(C)(C)C[C@H]2C2=CC[C@@H]4[C@@]5(C)CC[C@H](O)C(C)(C)[C@@H]5CC[C@@]4(C)[C@]2(C)CC3)C(=O)O)c1OC (stereo partly specified)
IC50 [1]: 660 nM
IC50 [2]: 750 nM

CNC(=O)[C@]12CCC(C)(C)C[C@H]1C1=CC[C@@H]3[C@@]4(C)CC[C@H](O)C(C)(C)[C@@H]4CC[C@@]3(C)[C@]1(C)CC2
IC50 [1]: 9200 nM

CC1(C)CC[C@]2(CCCCCCCCCCCCC(=O)O)CC[C@]3(C)C(=CC[C@@H]4[C@@]5(C)CC[C@H](O)C(C)(C)[C@@H]5CC[C@]43C)[C@@H]2C1
IC50 [1]: 590 nM
IC50 [2]: 530 nM

O=C(O)C(=O)c1ccc(OCc2ccc(COc3ccc(C(=O)C(=O)O)cc3)cc2)cc1
IC50 [1]: 5730 nM
IC50 [2]: 5350 nM

CC1(C)CC[C@]2(C(N)=O)CC[C@]3(C)C(=CC[C@@H]4[C@@]5(C)CC[C@H](O)C(C)(C)[C@@H]5CC[C@]43C)[C@@H]2C1
IC50 [1]: 4760 nM

CC1(C)CC[C@]2(C)CC[C@]3(C)[C@H](CC[C@@H]4[C@@]5(C)CC[C@H](O)C(C)(C)[C@@H]5CC[C@]43C)[C@@H]2C1
IC50 [1]: > 20000 nM
IC50 [2]: > 20000 nM

CC1(C)CC[C@]2(C(=O)O)CC[C@]3(C)C(=CC[C@@H]4[C@@]5(C)CC[C@H](OCc6ccccc6C(=O)O)C(C)(C)[C@@H]5CC[C@]43C)[C@@H]2C1
IC50 [1]: 2720 nM
IC50 [2]: 2220 nM

CC1(C)CC[C@]2(C(=O)O)CC[C@]3(C)C(=CC[C@@H]4[C@@]5(C)CC[C@H](OCc6cccc(C(=O)O)c6)C(C)(C)[C@@H]5CC[C@]43C)[C@@H]2C1
IC50 [1]: 620 nM
IC50 [2]: 490 nM

CC1(C)CC[C@]2(CCCCCCCCC(=O)O)CC[C@]3(C)C(=CC[C@@H]4[C@@]5(C)CC[C@H](O)C(C)(C)[C@@H]5CC[C@]43C)[C@@H]2C1
IC50 [1]: 780 nM
IC50 [2]: 790 nM

CC1(C)CC[C@]2(C(=O)N[C@@H](CCC(=O)O)C(=O)O)CC[C@]3(C)C(=CC[C@@H]4[C@@]5(C)CC[C@H](O)C(C)(C)[C@@H]5CC[C@]43C)[C@@H]2C1
IC50 [1]: 16400 nM

CCOC(=O)C(=O)O[C@H]1CC[C@]2(C)[C@H]3CC=C4[C@@H]5CC(C)(C)CC[C@]5(C(=O)O)CC[C@@]4(C)[C@]3(C)CC[C@H]2C1(C)C
IC50 [1]: 2890 nM
IC50 [2]: 3660 nM

CC1(C)CC[C@]2(CCCCCCCCCCC(=O)O)CC[C@]3(C)C(=CC[C@@H]4[C@@]5(C)CC[C@H](O)C(C)(C)[C@@H]5CC[C@]43C)[C@@H]2C1
IC50 [1]: 720 nM
IC50 [2]: 630 nM

CC1(C)CC[C@]2(C(=O)O)CC[C@]3(C)C(=CC[C@@H]4[C@@]5(C)CC[C@H](OCc6ccccc6)C(C)(C)[C@@H]5CC[C@]43C)[C@@H]2C1
IC50 [1]: 2670 nM
IC50 [2]: 2750 nM

COc1cccc(CC(NC(=O)CCCC[C@]23CCC(C)(C)C[C@H]2C2=CC[C@@H]4[C@@]5(C)CC[C@H](O)C(C)(C)[C@@H]5CC[C@@]4(C)[C@]2(C)CC3)C(=O)O)c1 (stereo partly specified)
IC50 [1]: 520 nM
IC50 [2]: 520 nM

CC1(C)CC[C@]2(C(=O)Nc3ccc(C(=O)O)cc3)CC[C@]3(C)C(=CC[C@@H]4[C@@]5(C)CC[C@H](O)C(C)(C)[C@@H]5CC[C@]43C)[C@@H]2C1
IC50 [1]: 3190 nM

COc1cc(CC(NC(=O)CCCC[C@]23CCC(C)(C)C[C@H]2C2=CC[C@@H]4[C@@]5(C)CC[C@H](O)C(C)(C)[C@@H]5CC[C@@]4(C)[C@]2(C)CC3)C(=O)O)cc(OC)c1 (stereo partly specified)
IC50 [1]: 630 nM
IC50 [2]: 850 nM

CC1(C)CC[C@]2(CCCCC(=O)N[C@@H](Cc3c[nH]c4ccccc34)C(=O)O)CC[C@]3(C)C(=CC[C@@H]4[C@@]5(C)CC[C@H](O)C(C)(C)[C@@H]5CC[C@]43C)[C@@H]2C1
IC50 [1]: 590 nM
IC50 [2]: 590 nM

CC1(C)CC[C@]2(CCCCC(=O)NC(Cc3ccc(Cl)cc3)C(=O)O)CC[C@]3(C)C(=CC[C@@H]4[C@@]5(C)CC[C@H](O)C(C)(C)[C@@H]5CC[C@]43C)[C@@H]2C1 (stereo partly specified)
IC50 [1]: 610 nM
IC50 [2]: 480 nM

COc1ccccc1CC(NC(=O)CCCC[C@]12CCC(C)(C)C[C@H]1C1=CC[C@@H]3[C@@]4(C)CC[C@H](O)C(C)(C)[C@@H]4CC[C@@]3(C)[C@]1(C)CC2)C(=O)O (stereo partly specified)
IC50 [1]: 530 nM
IC50 [2]: 450 nM

CC1(C)CC[C@]2(C(=O)O)CC[C@]3(C)C(=CC[C@@H]4[C@@]5(C)CC[C@H](OC(=O)c6ccccc6C(=O)O)C(C)(C)[C@@H]5CC[C@]43C)[C@@H]2C1
IC50 [1]: 4580 nM
IC50 [2]: 5000 nM

CC1(C)CC[C@]2(CCCCC(=O)N[C@H](Cc3ccccc3)C(=O)O)CC[C@]3(C)C(=CC[C@@H]4[C@@]5(C)CC[C@H](O)C(C)(C)[C@@H]5CC[C@]43C)[C@@H]2C1
IC50 [1]: 740 nM
IC50 [2]: 680 nM

C=C1CC[C@]2(C)[C@H]3CC=C4[C@@H]5CC(C)(C)CC[C@]5(C(=O)O)CC[C@@]4(C)[C@]3(C)CC[C@H]2C1(C)C
IC50 [1]: 2850 nM
IC50 [2]: 2530 nM

CC1(C)[C@@H](O)CC[C@]2(C)[C@H]3C(=O)C=C4[C@@H]5C[C@@](C)(C(=O)O)CC[C@]5(C)CC[C@@]4(C)[C@]3(C)CC[C@@H]12 [ENOXOLONE]
IC50 [2]: > 20000 nM

C[C@H]1[C@H](C)CC[C@]2(C(=O)O)CC[C@]3(C)C(=CC[C@@H]4[C@@]5(C)C[C@@H](O)[C@H](O)[C@@](C)(CO)[C@@H]5[C@H](O)C[C@]43C)[C@H]12 [MADECASSIC ACID]
IC50 [1]: 12400 nM
IC50 [2]: > 20000 nM

CC1(C)CC[C@]2(CCCCC(=O)NC(Cc3ccc([N+](=O)[O-])cc3)C(=O)O)CC[C@]3(C)C(=CC[C@@H]4[C@@]5(C)CC[C@H](O)C(C)(C)[C@@H]5CC[C@]43C)[C@@H]2C1 (stereo partly specified)
IC50 [1]: 450 nM
IC50 [2]: 360 nM

CC1(C)CC[C@]2(C(=O)O)CC[C@]3(C)C(=CC[C@@H]4[C@@]5(C)CC[C@H](OC(=O)CCC(=O)O)C(C)(C)[C@@H]5CC[C@]43C)[C@@H]2C1 [OLEANOLIC ACID 3-O-SUCCINATE]
IC50 [1]: 5970 nM
IC50 [2]: 5360 nM

COc1ccc(CC(NC(=O)CCCC[C@]23CCC(C)(C)C[C@H]2C2=CC[C@@H]4[C@@]5(C)CC[C@H](O)C(C)(C)[C@@H]5CC[C@@]4(C)[C@]2(C)CC3)C(=O)O)cc1OC (stereo partly specified)
IC50 [1]: 820 nM
IC50 [2]: 700 nM

CC1(C)CC[C@]2(C(=O)O)CC[C@]3(C)C(=CC[C@@H]4[C@@]5(C)CC[C@H](OC(=O)C(=O)O)C(C)(C)[C@@H]5CC[C@]43C)[C@@H]2C1
IC50 [1]: 2860 nM
IC50 [2]: 4550 nM

CC1(C)CC[C@]2(CCCCC(=O)NC(Cc3cccc(Cl)c3)C(=O)O)CC[C@]3(C)C(=CC[C@@H]4[C@@]5(C)CC[C@H](O)C(C)(C)[C@@H]5CC[C@]43C)[C@@H]2C1 (stereo partly specified)
IC50 [1]: 510 nM
IC50 [2]: 520 nM

CC1(C)CC[C@]2(C(=O)NCC(=O)O)CC[C@]3(C)C(=CC[C@@H]4[C@@]5(C)CC[C@H](O)C(C)(C)[C@@H]5CC[C@]43C)[C@@H]2C1
IC50 [1]: 15400 nM

COC(=O)[C@]12CCC(C)(C)C[C@H]1C1=CC[C@@H]3[C@@]4(C)CC[C@H](O)C(C)(C)[C@@H]4CC[C@@]3(C)[C@]1(C)CC2 [METHYL OLEANOLATE]
IC50 [1]: 4440 nM

CC1(C)CC[C@]2(C(=O)NCc3ccccc3)CC[C@]3(C)C(=CC[C@@H]4[C@@]5(C)CC[C@H](O)C(C)(C)[C@@H]5CC[C@]43C)[C@@H]2C1
IC50 [1]: 8100 nM
